Measurements reported in ChEMBL document CHEMBL1201862, “PubChem BioAssay data set” (2004).
Activity calls are given as the source filed them.

Assays:
[1] = cytotoxicity in HEK-293T cells, dose response, cytotoxicity control for TCR NF-kB inhibitor project, luminescence, T-cell screen hits (AID 489026); format: functional, cell-based;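 also: cells exposed to compound about 14 hours before the viability readout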
Fatty acid synthase [2] = target: T1, Fatty acid synthase (Homo sapiens, UniProt P49327); assay: FAS thioesterase domain inhibitors, dose response, biochemical, endpoint fluorescence intensity, uHTS hits (AID 624327); format: functional;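 also: fluorescence from hydrolysis of an O-methyl fluorescein acyl ester substrate by the enzyme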
T1 sequence (P49327 whole entry, the tested form may be a part): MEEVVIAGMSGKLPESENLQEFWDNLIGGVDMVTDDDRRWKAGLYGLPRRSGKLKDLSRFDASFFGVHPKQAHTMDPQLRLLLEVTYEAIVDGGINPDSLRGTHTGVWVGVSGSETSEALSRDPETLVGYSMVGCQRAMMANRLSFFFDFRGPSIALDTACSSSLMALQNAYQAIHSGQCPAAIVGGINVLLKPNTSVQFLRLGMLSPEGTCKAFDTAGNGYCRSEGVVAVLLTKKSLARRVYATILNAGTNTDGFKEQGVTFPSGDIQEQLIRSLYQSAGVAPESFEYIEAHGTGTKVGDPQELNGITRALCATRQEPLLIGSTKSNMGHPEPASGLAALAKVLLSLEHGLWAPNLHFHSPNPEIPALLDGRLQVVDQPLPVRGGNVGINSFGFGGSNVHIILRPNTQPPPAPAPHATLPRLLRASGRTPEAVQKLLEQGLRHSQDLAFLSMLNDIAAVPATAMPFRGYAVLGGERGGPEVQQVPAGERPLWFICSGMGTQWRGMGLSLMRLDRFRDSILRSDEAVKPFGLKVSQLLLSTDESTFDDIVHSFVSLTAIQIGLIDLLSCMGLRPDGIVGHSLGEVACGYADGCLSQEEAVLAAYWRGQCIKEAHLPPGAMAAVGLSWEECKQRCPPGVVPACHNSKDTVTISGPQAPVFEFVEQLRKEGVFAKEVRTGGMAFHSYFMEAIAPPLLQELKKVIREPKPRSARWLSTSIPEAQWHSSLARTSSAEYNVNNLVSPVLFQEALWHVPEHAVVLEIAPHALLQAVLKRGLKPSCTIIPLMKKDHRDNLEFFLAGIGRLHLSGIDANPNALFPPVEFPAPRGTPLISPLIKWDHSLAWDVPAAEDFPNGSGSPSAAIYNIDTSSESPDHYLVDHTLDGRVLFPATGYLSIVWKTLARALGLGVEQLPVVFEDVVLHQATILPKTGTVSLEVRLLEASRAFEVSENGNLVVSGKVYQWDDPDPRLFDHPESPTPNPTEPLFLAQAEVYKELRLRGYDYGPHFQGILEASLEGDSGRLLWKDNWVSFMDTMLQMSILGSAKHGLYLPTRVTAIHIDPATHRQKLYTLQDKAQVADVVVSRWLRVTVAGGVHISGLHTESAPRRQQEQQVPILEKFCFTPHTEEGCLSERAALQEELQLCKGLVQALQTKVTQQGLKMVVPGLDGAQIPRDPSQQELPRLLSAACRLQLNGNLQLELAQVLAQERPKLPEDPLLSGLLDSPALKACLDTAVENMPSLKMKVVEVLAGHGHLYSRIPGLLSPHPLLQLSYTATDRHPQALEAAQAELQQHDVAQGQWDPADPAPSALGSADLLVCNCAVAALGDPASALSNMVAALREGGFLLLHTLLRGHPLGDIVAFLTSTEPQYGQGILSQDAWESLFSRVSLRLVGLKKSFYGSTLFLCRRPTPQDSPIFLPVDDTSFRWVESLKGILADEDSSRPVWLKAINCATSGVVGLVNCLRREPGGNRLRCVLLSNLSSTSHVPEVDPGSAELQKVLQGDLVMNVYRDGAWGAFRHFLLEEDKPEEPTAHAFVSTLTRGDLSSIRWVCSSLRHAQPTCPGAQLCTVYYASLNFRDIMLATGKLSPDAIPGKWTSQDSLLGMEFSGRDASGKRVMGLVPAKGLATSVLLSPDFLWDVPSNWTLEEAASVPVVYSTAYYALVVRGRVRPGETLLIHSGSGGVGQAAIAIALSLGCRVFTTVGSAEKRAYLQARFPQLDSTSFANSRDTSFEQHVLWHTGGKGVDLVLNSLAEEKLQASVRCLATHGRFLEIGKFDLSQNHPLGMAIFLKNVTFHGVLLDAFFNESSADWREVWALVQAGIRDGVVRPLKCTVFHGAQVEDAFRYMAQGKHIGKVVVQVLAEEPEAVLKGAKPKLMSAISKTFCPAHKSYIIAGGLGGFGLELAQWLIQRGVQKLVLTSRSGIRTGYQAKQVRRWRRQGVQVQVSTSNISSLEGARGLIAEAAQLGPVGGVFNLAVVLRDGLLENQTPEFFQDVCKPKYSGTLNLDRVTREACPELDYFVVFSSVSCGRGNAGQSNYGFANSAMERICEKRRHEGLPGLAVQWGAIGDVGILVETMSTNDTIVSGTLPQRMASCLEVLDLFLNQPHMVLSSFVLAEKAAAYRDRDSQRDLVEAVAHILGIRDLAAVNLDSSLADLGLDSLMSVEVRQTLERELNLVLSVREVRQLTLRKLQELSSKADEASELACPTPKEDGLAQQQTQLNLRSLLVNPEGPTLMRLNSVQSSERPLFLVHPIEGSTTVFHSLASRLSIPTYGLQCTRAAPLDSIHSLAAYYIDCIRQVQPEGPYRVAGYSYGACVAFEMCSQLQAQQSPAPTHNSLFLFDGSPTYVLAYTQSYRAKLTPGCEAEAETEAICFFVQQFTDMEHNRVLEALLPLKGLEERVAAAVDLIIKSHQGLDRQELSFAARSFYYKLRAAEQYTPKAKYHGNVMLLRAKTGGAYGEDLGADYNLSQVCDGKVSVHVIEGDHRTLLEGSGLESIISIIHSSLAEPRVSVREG

Fatty acid synthase [3] = target: T1, Fatty acid synthase; assay: FAS thioesterase domain inhibitors, dose response, biochemical, kinetic fluorescence intensity (AID 624326); format: functional;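 also: rate of fluorescence rise from hydrolysis of a fluorogenic O-methyl fluorescein ester substrate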
Protein skinhead-1 = target: T2, Protein skinhead-1 (Caenorhabditis elegans, UniProt P34707); format: functional
T2 sequence (P34707 whole entry): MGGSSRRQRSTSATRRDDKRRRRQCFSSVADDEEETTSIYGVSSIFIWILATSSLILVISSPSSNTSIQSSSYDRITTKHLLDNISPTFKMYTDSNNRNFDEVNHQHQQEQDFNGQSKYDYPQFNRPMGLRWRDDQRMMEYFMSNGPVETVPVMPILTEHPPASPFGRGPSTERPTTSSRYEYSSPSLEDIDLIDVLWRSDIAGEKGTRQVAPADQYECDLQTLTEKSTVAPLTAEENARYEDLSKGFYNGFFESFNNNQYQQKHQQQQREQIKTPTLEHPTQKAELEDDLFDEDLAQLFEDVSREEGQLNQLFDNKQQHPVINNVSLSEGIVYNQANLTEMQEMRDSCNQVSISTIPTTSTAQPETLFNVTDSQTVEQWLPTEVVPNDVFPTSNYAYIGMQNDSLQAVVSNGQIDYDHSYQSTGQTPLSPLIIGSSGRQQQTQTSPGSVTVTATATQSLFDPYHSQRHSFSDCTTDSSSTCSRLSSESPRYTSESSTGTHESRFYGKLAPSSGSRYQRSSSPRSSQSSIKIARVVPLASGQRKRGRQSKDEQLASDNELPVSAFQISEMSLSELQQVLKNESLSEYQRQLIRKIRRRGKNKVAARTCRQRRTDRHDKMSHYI

P388 = assay: cells; format: functional; conditions: Mus musculus
SN12K1 = assay: cells; format: functional; conditions: Homo sapiens
P388/ADR = assay: cells; format: functional; conditions: Mus musculus
Vero = Vero cell cytotoxicity, cytotoxicity control for flavivirus capping enzyme inhibitors (AID 588742); format: functional; conditions: Chlorocebus sabaeus
[4] = target: Heat shock protein HSP 90-alpha (Homo sapiens, UniProt P07900); format: functional, organism-based
[5] = inhibitors of firefly luciferase expression or activity, dose response, H4 neuroglioma cells, luminescence (AID 1990); format: functional, cell-based
[6] = Luminescence Cell-Based Dose Retest to Confirm Inhibitors of Cancer Stem Cells. [Related pubchem assays (depositor defined):AID2717, AID2721]; format: functional; conditions: Homo sapiens
[7] = inhibitors of SNCA 5'UTR-driven reporter translation, confirmation, H4 neuroglioma cells, luminescence (AID 1988); format: functional, cell-based
[8] = Luminescence Cell-Based Dose Response HTS to Identify Inhibitors of 5'UTR Stem-Loop Driven Prion Protein mRNA Translation in H4 Neuroglioblastoma Cells. [Related pubchem assays: 1827 (Project Summary), 1813 (Primary HTS)]; format: functional
[9] = inhibitors of clade B AD8 Env fusion, dose response, cell-based, cherry-pick (AID 652062); format: functional;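 also: luciferase signal from cell-cell fusion driven by HIV-1 clade B AD8 Env; potency is for inhibitors of fusion seen as a drop in luminescence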
[10] = microbe, parasite or virus in culture; format: functional; conditions: Mycobacterium tuberculosis
[11] = Vero E6 cell cytotoxicity, dose response, cytotoxicity control for non-replicating M. tuberculosis project, secondary assay (AID 492998); format: functional, VeroE6; conditions: Vero C1008
[12] = THP-1 cell cytotoxicity, dose response, cytotoxicity control for non-replicating M. tuberculosis project (AID 489025); format: functional
cells = format: functional
[13] = HepG2 cell cytotoxicity, dose response, cytotoxicity control for non-replicating M. tuberculosis project (AID 489018); format: functional; conditions: Mycobacterium tuberculosis
[14] = target: T3, RNA-binding protein pos-1 (Caenorhabditis elegans, UniProt G5EF15); assay: inhibitors of POS-1/mex-3 RNA binding, dose response, biochemical, fluorescence polarization (AID 1964);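 also: purified POS-1 fused to maltose binding protein made in E. coli; potency of compounds blocking POS-1 binding to fluorescent RNA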
T3 sequence (G5EF15 whole entry): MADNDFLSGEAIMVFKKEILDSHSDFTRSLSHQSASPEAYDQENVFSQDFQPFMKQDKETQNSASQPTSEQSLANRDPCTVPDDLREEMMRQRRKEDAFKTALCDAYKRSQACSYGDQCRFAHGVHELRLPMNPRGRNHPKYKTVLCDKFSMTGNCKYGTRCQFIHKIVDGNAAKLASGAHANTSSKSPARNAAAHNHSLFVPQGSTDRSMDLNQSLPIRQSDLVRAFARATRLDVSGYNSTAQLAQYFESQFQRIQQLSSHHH

[15] = target: T4, Zinc finger protein mex-5 (Caenorhabditis elegans, UniProt Q9XUB2); assay: MEX-5/TCR-2 RNA interaction inhibitors, dose response, biochemical, C. elegans, fluorescence polarization (AID 1960)
T4 sequence (Q9XUB2 whole entry): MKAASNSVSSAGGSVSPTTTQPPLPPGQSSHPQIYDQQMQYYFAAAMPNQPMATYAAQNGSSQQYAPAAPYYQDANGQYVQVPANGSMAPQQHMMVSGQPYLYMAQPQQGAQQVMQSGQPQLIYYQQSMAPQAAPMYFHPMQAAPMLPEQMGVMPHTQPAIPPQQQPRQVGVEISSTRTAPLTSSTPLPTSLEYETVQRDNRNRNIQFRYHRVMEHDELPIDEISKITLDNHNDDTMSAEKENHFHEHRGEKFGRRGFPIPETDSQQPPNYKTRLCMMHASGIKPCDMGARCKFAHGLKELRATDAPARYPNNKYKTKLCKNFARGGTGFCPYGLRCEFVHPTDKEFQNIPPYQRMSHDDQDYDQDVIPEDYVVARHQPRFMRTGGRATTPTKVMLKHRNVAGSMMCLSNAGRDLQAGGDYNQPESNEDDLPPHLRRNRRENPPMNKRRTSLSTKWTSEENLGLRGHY

[16] = HepG2 cell cytotoxicity, dose response, cytotoxicity control for Shn3 inhibitor project, CellTiter-Glo, cherry-picked (AID 624134); format: functional, cell-based
[17] = control 3'UTR Renilla luciferase suppression, dose response, counter-screen for Shn3 inhibitor project, cell-based, Clone20-Shn3RL, cherry-picked (AID 624133); format: functional
INS1 = assay: beta cell apoptosis inhibitors, cytokine rescue, dose response, luminescence, retest (AID 449756); format: functional, cell-based; conditions: Rattus norvegicus;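 also: cell death triggered by IL-1 beta plus TNF-alpha plus IFN-gamma mixture; protective hits raise ATP signal compared with cytokine alone wells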
Protein Wnt-3a = Protein Wnt-3a (Mus musculus, UniProt P27467); assay: Wnt3a-driven reporter signaling inhibition, dose response, selectivity assay for Gli-SUFU antagonist project, Wnt-LIGHT cells, luminescence (AID 651570); format: functional; conditions: read-out: IC50_Mean;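 also: Wnt-LIGHT reporter cells stimulated with conditioned medium from Wnt3a-producing cells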
Chain of Protein Wnt-3a (P27467 whole entry): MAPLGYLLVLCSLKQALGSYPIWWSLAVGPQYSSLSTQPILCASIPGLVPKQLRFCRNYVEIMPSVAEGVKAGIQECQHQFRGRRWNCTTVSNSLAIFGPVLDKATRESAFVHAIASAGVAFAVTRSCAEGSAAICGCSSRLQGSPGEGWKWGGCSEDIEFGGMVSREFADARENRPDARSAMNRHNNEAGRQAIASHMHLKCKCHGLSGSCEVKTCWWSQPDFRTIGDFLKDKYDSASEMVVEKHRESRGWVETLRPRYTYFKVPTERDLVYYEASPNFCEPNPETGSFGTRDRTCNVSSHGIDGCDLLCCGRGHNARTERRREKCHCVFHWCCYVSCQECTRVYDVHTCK

[18] = Shn3 3'UTR reporter inhibitors, dose response, cell-based, Clone20 osteoblasts, firefly luciferase, cherry-picked (AID 624132); format: functional;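 also: firefly luciferase luminescence from reporter carrying the Shn3 3'UTR in osteoblasts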
[19] = target: T5, Carboxy-terminal domain RNA polymerase II polypeptide A small phosphatase 1 (Homo sapiens, UniProt Q9GZU7); assay: inhibitors of CTDSP1, concentration-response testing, biochemical assay, absorbance-based, actives from ultra-high-throughput screening (AID 540297); format: functional
T5 sequence (Q9GZU7 whole entry): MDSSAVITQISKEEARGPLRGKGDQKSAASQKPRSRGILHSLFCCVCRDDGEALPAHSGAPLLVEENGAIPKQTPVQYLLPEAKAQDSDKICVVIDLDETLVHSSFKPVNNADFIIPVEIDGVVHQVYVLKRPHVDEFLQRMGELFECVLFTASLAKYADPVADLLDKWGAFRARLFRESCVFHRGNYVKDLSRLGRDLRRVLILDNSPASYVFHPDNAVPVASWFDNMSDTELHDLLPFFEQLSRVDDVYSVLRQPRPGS

[20] = target: Eukaryotic translation initiation factor 4E (Mus musculus, UniProt P63073); assay: eIF4E–eIF4G protein interaction inhibitors, dose response, biochemical, TR-FRET (AID 855); format: functional;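 also: potency for disrupting eIF4E binding to eIF4GI seen as loss of FRET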
Chain of Eukaryotic translation initiation factor 4E (P63073 whole entry): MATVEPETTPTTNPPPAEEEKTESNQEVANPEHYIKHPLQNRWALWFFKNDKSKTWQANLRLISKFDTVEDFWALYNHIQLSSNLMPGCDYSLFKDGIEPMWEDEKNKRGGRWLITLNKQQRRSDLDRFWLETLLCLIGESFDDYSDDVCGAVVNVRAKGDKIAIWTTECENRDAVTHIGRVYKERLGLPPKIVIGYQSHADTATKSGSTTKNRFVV

## CCCC[C@@H](C)C[C@@H](C)C(=O)N(C)[C@@H](CC(C)C)C(=O)N[C@H](C(=O)N(C)[C@H](C(=O)N1C[C@@H](O)C[C@H]1C(=O)N1C(=O)C=C[C@@H]1C)C(C)C)C(C)OC(C)=O (stereo partly specified)
[1]
  IC50: 18.6 µM (active)

## O=[N+]([O-])c1ccc(C(O)C(CO)N=C(S)Nc2ccccc2)cc1 (stereo unspecified)
Fatty acid synthase [2]
  IC50: 20.8 µM (inactive)
Fatty acid synthase [3]
  IC50: 24.8 µM (inactive)

## COC(=O)c1ccc(CSc2nc3ccccc3o2)cc1
Protein skinhead-1
  IC50: 41.7 µM (active)

## Nc1nc(N)c2cc(CNc3ccc(C(=O)NC(CC(=O)O)C(=O)O)c(Cl)c3)ccc2n1 (stereo unspecified)
P388
  GI50: < 0.01 µM (active)
SN12K1
  GI50: 0.014 µM (active)
P388/ADR
  GI50: < 0.01 µM (active)

## O=S(=O)(O)c1cc(S(=O)(=O)O)c2cc(/N=N/c3ccc(/N=N/c4ccc(/C=C/c5ccc(/N=[N+](/[O-])c6ccc(/C=C/c7ccc(/N=N/c8ccc(/N=N/c9ccc%10cc(S(=O)(=O)O)cc(S(=O)(=O)O)c%10c9)cc8)cc7S(=O)(=O)O)c(S(=O)(=O)O)c6)cc5S(=O)(=O)O)c(S(=O)(=O)O)c4)cc3)ccc2c1
P388
  GI50: 14.7 µM (inactive)
SN12K1
  GI50: > 95.1 µM (inactive)

## Cc1ccc(/C=C/c2nc3ccccc3[nH]2)o1
Vero
  CC50: > 40 µM (active)

## Cc1ccc(O)c(NC(=O)c2cc([N+](=O)[O-])ccc2Cl)c1
Fatty acid synthase [2]
  IC50: 13.4 µM (active)
Fatty acid synthase [3]
  IC50: 15.8 µM (active)

## O=C(O)c1ccc(S(=O)(=O)c2ccccc2)cc1
Protein skinhead-1
  IC50: > 100 µM (inactive)

## O=C(NC(Cc1ccc(Br)cc1)C(=O)O)c1ccc(I)cc1 (stereo unspecified)
P388
  GI50: > 80.9 µM (inactive)
SN12K1
  GI50: > 100 µM (inactive)
P388/ADR
  GI50: > 66.1 µM (inactive)

## CCN1C(=O)/C(=C/C=C2\C=CN(CC)c3ccccc32)SC1=S
Vero
  CC50: > 40 µM (active)

## COC(=O)NC1C(C)OC(OC2C/C=C(/C)C3C=CC4C(OC5CC(OC6CC(O)C(OC7CC(O)C(OC)C(C)O7)C(C)O6)C(O)C(C)O5)C(C)CC(C)C4C3(C)C(=O)C3=C(O)C4(CC(C)C(CO)=CC4/C=C\2C)OC3=O)CC1(C)[N+](=O)[O-] (stereo unspecified)
P388
  GI50: 3.55 µM (inactive)
SN12K1
  GI50: 6.21 µM (inactive)
P388/ADR
  GI50: 5.56 µM (inactive)

## Cc1ccc([N+](=O)[O-])cc1NC(=O)CCc1ccccc1
Fatty acid synthase [2]
  IC50: 14 µM (active)
Fatty acid synthase [3]
  IC50: 17.5 µM (active)

## C=CCn1c(C)cc(C(=O)CSc2nc(O)c3ccccc3n2)c1C
[4]
  AC50: 2.6 µM (active)

## O=C1CC(c2cc(Br)ccc2F)c2cc3c(cc2N1)CCC3 (stereo unspecified)
[5]
  EC50: 7.6 µM (active)
[1]
  IC50: > 80 µM (inactive)
[6]
  AC50: < 0.16 µM (active)
[7]
  EC50: 1.48 µM (inconclusive)
[8]
  EC50: 2.01 µM (active)

## Cc1cc(C)c(C(=O)COC(=O)c2cc([N+](=O)[O-])ccc2NCCO)cc1C
Fatty acid synthase [2]
  IC50: 8.07 µM (active)
Fatty acid synthase [3]
  IC50: 13.3 µM (active)

## O=NN(CCCl)C(=O)N[C@H]1CC[C@H](CC(=O)O)CC1
P388
  GI50: 3.73 µM (inactive)
SN12K1
  GI50: 69 µM (inactive)
P388/ADR
  GI50: 3.97 µM (inactive)

## COc1ccc(OCC(=O)Nc2ccccc2N2CCCCC2)cc1
[9]
  AC50: 33.4 µM (active)
[1]
  IC50: > 80 µM (inactive)

## C/C(=N\NC(=O)c1cc2ccccc2cc1O)c1ccc(C)o1
[10]
  CC50: 22.7 µM (active)
[11]
  CC50: 16 µM (active)
[12]
  CC50: 21.9 µM (active)
cells
  IC50: 6.26 µM (active)
Vero
  CC50: 32 µM (active)
[13]
  CC50: > 20 µM (active)

## CCCCN1C(=O)/C(=C/C=C2\Oc3ccccc3N2CC)SC1=S
[4]
  AC50: 171 µM (active)
[14]
  EC50: 48.2 µM (active)
[15]
  EC50: > 300 µM (not active)

## Cc1c(C(C)C)c(=O)n(-c2ccc(S(=O)(=O)NCc3ccccc3)cc2)n1C
[16]
  AC50: 2.48 µM (active)
[17]
  AC50: 1.96 µM (active)
INS1
  AC50: 2.71 µM (active)
Protein Wnt-3a
  IC50: 5.02 µM (active)
[18]
  AC50: 1.18 µM (active)

## O=C(Cc1cccs1)Nc1ccc(S(=O)(=O)N2CCCC2)cc1
[19]
  IC50: 5.04 µM (active)
[20]
  IC50: 50 µM (inactive)

## COc1cc(C(=O)Nc2ccc3c(c2)CCN3C(C)=O)cc(OC)c1OC
[1]
  IC50: > 80 µM (inactive)

## Cn1c(=O)c2c(nc(NCCOc3ccc(C(C)(C)C)cc3)n2C)n(C)c1=O
Protein Wnt-3a
  IC50: 1.2 µM (active)

## O=C(Cc1ccc(Cl)cc1Cl)Nc1ccncc1
[16]
  AC50: 42.9 µM (active)
[17]
  AC50: 6.34 µM (active)
[9]
  AC50: 9.95 µM (active)
Protein Wnt-3a
  IC50: 3.6 µM (active)
[18]
  AC50: 2.56 µM (active)

## S=P1(Sc2ccccc2)Oc2ccc3ccccc3c2-c2c(ccc3ccccc23)O1
P388
  GI50: > 100 µM (inactive)
SN12K1
  GI50: > 100 µM (inactive)
P388/ADR
  GI50: > 100 µM (inactive)
